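Cells were grown in 96-well plates and exposed to each compound for 48 hours at five concentrations; endpoints were interpolated linearly between bracketing concentrations, or set to the highest concentration if not reached. Abbreviation: GI50, concentration required for 50% inhibition of growth. At the TGI there is no net growth.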 Bounds are passed on as bounds.

Among the test systems are HOP-62 NSCLC; HOP-92 NSCLC; IGROV1 ovarian; LOX IMVI melanoma; OVCAR-8 ovarian; SK-MEL-5 melanoma; SN12C renal; SNB-75 CNS; U251 CNS; UACC-62 melanoma.
What all share (experiment): growth of human tumour cells (NCI), 48 h

Take `COC(=O)/C(C#N)=C\N1CCN(C(=O)c2ccco2)C1=S`: the GI50 is 22.3 µM in the assay on HOP-62 NSCLC; 14 µM with HOP-92 NSCLC; 6.16 µM in the assay with IGROV1 ovarian; 2.39 µM with LOX IMVI melanoma; 15.5 µM with OVCAR-8 ovarian; 14.8 µM in the assay on SK-MEL-5 melanoma. The GI50 in the assay with SN12C renal is 3.69 µM; in the assay with SNB-75 CNS, 15.5 µM; in the assay with U251 CNS, 6.78 µM; in the assay with UACC-62 melanoma, 10.7 µM. The TGI was found to be 46.8 µM in the assay with HOP-62 NSCLC; 43.1 µM in the assay with HOP-92 NSCLC; 26.4 µM in the assay with IGROV1 ovarian; 8 µM in the assay on LOX IMVI melanoma; 56.2 µM with OVCAR-8 ovarian; 31 µM in the assay on SK-MEL-5 melanoma. The TGI in the assay on SN12C renal was 14.4 µM; in the assay with SNB-75 CNS it was more than 100 µM; in the assay with U251 CNS it was 37 µM; with UACC-62 melanoma, 27.2 µM.
For `CCCOc1ccc(/C(Cl)=C(\C=O)c2ccc(OC)c(OC)c2)cc1OCCC`, the TGI in the assay on HOP-62 NSCLC was more than 100 µM; in the assay on HOP-92 NSCLC it was 51.2 µM; in the assay on IGROV1 ovarian, more than 100 µM; with LOX IMVI melanoma, 25.8 µM; in the assay with OVCAR-8 ovarian, more than 100 µM; in the assay on SK-MEL-5 melanoma, 46.3 µM. The TGI is more than 100 µM in the assay on SN12C renal, 75.3 µM with SNB-75 CNS, 33.9 µM with U251 CNS and 19.8 µM in the assay with UACC-62 melanoma.
With `COc1cc(/C=C/C(=O)C(=Cc2ccc(F)c(F)c2)C(=O)/C=C/c2ccc(O)c(OC)c2)ccc1O`, the GI50 was 2.87 µM with HOP-62 NSCLC; 2.51 µM with HOP-92 NSCLC; 3.82 µM in the assay on IGROV1 ovarian; 1.95 µM in the assay with LOX IMVI melanoma; 2.93 µM in the assay on OVCAR-8 ovarian; 2.18 µM in the assay on SK-MEL-5 melanoma. The GI50 was 2.65 µM in the assay on SN12C renal, 1.91 µM in the assay on SNB-75 CNS, 1.7 µM in the assay with U251 CNS and 1.93 µM in the assay on UACC-62 melanoma. The TGI was 9.38 µM in the assay on HOP-62 NSCLC; 6.05 µM with HOP-92 NSCLC; 67.9 µM in the assay with IGROV1 ovarian; 4.48 µM in the assay on LOX IMVI melanoma; 11.1 µM in the assay with OVCAR-8 ovarian; 5.3 µM in the assay on SK-MEL-5 melanoma. The TGI is 7.86 µM in the assay on SN12C renal, 5.97 µM with SNB-75 CNS, 3.51 µM in the assay with U251 CNS and 5.14 µM in the assay on UACC-62 melanoma.
In the case of `O=C(CCc1nnc2s/c(=C\c3ccccc3)c(=O)n12)Nc1cc(Cl)ccc1Cl`, the TGI in the assay with HOP-62 NSCLC, in the assay on HOP-92 NSCLC, with IGROV1 ovarian, in the assay with LOX IMVI melanoma, in the assay with OVCAR-8 ovarian and in the assay with SK-MEL-5 melanoma was more than 100 µM each time. Besides, the TGI with SN12C renal, in the assay on SNB-75 CNS, in the assay on U251 CNS and in the assay with UACC-62 melanoma was more than 100 µM each time.
`C=CCN1C(=O)/C(=c2\sc3n(c2=O)C2C(NN=3)N(CC)C(=O)N2CC)c2ccccc21` (centres undefined): the GI50 with HOP-62 NSCLC is 1.02 µM; in the assay with HOP-92 NSCLC it was 0.842 µM; in the assay on IGROV1 ovarian, 0.978 µM; in the assay with LOX IMVI melanoma it was 0.698 µM; in the assay with OVCAR-8 ovarian it was 1.12 µM; in the assay with SK-MEL-5 melanoma it was 0.421 µM. Moreover, the GI50 in the assay on SN12C renal was 0.7 µM; with SNB-75 CNS, 0.254 µM; in the assay on U251 CNS, 0.726 µM; in the assay on UACC-62 melanoma, 0.612 µM. In addition, the TGI in the assay with HOP-62 NSCLC was more than 53.5 µM; in the assay with HOP-92 NSCLC, 9.2 µM; in the assay with IGROV1 ovarian, more than 100 µM; with LOX IMVI melanoma, more than 100 µM; in the assay on OVCAR-8 ovarian, more than 100 µM; with SK-MEL-5 melanoma it was 2.05 µM. Also, the TGI in the assay on SN12C renal was more than 100 µM; with SNB-75 CNS it was 2.98 µM; in the assay with U251 CNS, more than 33.5 µM; in the assay on UACC-62 melanoma, more than 62.1 µM.
On to `COC(=O)CCC(NC(=S)N/N=C(\C)c1ccccn1)C(=O)OC` (centres undefined), for which the TGI with HOP-62 NSCLC, with HOP-92 NSCLC, with IGROV1 ovarian, in the assay on LOX IMVI melanoma, in the assay on OVCAR-8 ovarian and in the assay with SK-MEL-5 melanoma was more than 100 µM throughout. Also, the TGI with SN12C renal, in the assay on SNB-75 CNS, in the assay on U251 CNS and in the assay with UACC-62 melanoma was more than 100 µM throughout.
As to `CC(C)=CC/C=C(/C)[C@H]1CC[C@]2(C)[C@@H]1CC[C@@H]1[C@@]3(C)CCC(=O)NC(C)(C)[C@@H]3CC[C@]12C`, the GI50 in the assay with HOP-62 NSCLC is 20.8 µM; in the assay with HOP-92 NSCLC, 13.8 µM; with IGROV1 ovarian, 10.6 µM; in the assay on LOX IMVI melanoma, 17.9 µM; in the assay with OVCAR-8 ovarian, 26 µM; in the assay with SK-MEL-5 melanoma it was 13.3 µM. For the same compound, the GI50 with SN12C renal was 16.1 µM; with SNB-75 CNS, 20.9 µM; with U251 CNS it was 17.2 µM; in the assay with UACC-62 melanoma it was 16.9 µM. The TGI stood at 44.7 µM with HOP-62 NSCLC; 28.2 µM in the assay with HOP-92 NSCLC; 26.5 µM in the assay with IGROV1 ovarian; 32.4 µM in the assay on LOX IMVI melanoma; 76.7 µM with OVCAR-8 ovarian; 26.4 µM in the assay with SK-MEL-5 melanoma. Also, the TGI with SN12C renal worked out at 33.8 µM; with SNB-75 CNS, 55.1 µM; with U251 CNS, 36.5 µM; with UACC-62 melanoma, 43.5 µM.
As to `NC(=O)c1ccccc1NC(=O)C(=O)C(C(=O)c1ccc2ccccc2c1)C1OC(=O)c2ccccc21` (centres undefined), the TGI in the assay on HOP-62 NSCLC stood at 24.2 µM; in the assay with HOP-92 NSCLC it was 32.3 µM; in the assay on IGROV1 ovarian, 46.6 µM; in the assay on LOX IMVI melanoma, 29.9 µM; with SK-MEL-5 melanoma, 24.6 µM; in the assay on SN12C renal, 37.1 µM. The TGI was found to be 45.2 µM in the assay on SNB-75 CNS, 25.2 µM in the assay with U251 CNS and 22.5 µM in the assay on UACC-62 melanoma.
Consider `COC(=O)C(C(=O)C(=O)Nc1cccc(O)c1)c1nc2ccc(Cl)cc2[nH]c1=O` (centres undefined), for which the TGI in the assay on HOP-62 NSCLC, with HOP-92 NSCLC, with IGROV1 ovarian, in the assay on LOX IMVI melanoma, in the assay with OVCAR-8 ovarian and with SK-MEL-5 melanoma was more than 100 µM throughout. Besides, the TGI with SN12C renal, with SNB-75 CNS, in the assay with U251 CNS and with UACC-62 melanoma was more than 100 µM in each case.
As for `NC(=S)N/N=C(/CC(=O)c1ccc([N+](=O)[O-])cc1)C(=O)Nc1ncc([N+](=O)[O-])s1`, the TGI in the assay with HOP-62 NSCLC, in the assay with HOP-92 NSCLC, in the assay on IGROV1 ovarian, in the assay on LOX IMVI melanoma, with OVCAR-8 ovarian and with SK-MEL-5 melanoma was more than 100 µM in each case. The TGI with SN12C renal, in the assay on SNB-75 CNS, in the assay on U251 CNS and in the assay on UACC-62 melanoma was more than 100 µM each time.

For the origin of these results see PubChem BioAssay (NCI).
